How the values were obtained:
Conditions in all cases: 48 h
NOMO1 [1] = experiment: cell viability relative to DMSO control; higher = less cytotoxic
Summary of the method: (§1)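 Viability values are per-plate percentages of DMSO wells, with background from cell-free wells. Library compounds in DMSO were pin-dosed, in an 11-point threefold series from 47 μM to 0.79 nM, onto NOMO1 or SEM (500 cells/well) or P12-Ichikawa (1000 cells/well) leukemia cells in 1536-well plates (5 μl). Those cells had been adapted for at least four passages in each medium, and CellTiter-Glo One luminescence was read after 48 h at 37°C.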

P12-Ichikawa [2] = experiment: as above
Summary of the method: as §1

SEM cells [3] = experiment: as above
Summary of the method: as §1

NOMO1 [4] = experiment: AUC of viability dose-response curve (% viability x log10 dose units); higher = less sensitive
Summary of the method: (§2)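 Leukemia cells adapted to each medium were seeded at 500 or 1000 cells/well in 1536-well plates and dosed with library compounds in DMSO at 11 threefold doses from 47 μM to 0.79 nM for 48 h at 37°C. CellTiter-Glo One luminescence was normalised per plate to DMSO and cell-free wells, then fitted with a four-parameter log-logistic model over log10 doses. Area under the curve was taken from this fit by the trapezoidal rule, with curves above full viability scaled and curves failing quality control removed.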

P12-Ichikawa [5] = experiment: as above
Summary of the method: as §2

SEM cells [6] = experiment: as above
Summary of the method: as §2

CN1C(=O)c2sccc2N(C)c2nc(Nc3ccc([S+](N)(=O)[O-])cc3)ncc21
cell viability [%]
Conditions	NOMO1 [1]	P12-Ichikawa [2]	SEM cells [3]
HPLM + 10% dialyzed FBS, 0.000781 µM	113	91.5	94.1
HPLM + 10% dialyzed FBS, 0.00234 µM	100	94	93.2
HPLM + 10% dialyzed FBS, 0.00702 µM	115	95.1	103
HPLM + 10% dialyzed FBS, 0.0211 µM	104	102	102
HPLM + 10% dialyzed FBS, 0.0632 µM	97	101	89.2
HPLM + 10% dialyzed FBS, 0.19 µM	117	96.2	99.6
HPLM + 10% dialyzed FBS, 0.569 µM	105	92.6	88.7
HPLM + 10% dialyzed FBS, 1.71 µM	73.4	75.7	67.8
HPLM + 10% dialyzed FBS, 5.12 µM	60.5	11.4	21.9
HPLM + 10% dialyzed FBS, 15.4 µM	28.5	5.78	9.56
HPLM + 10% dialyzed FBS, 46.1 µM	8.75	5.18	3.55
RPMI 5 mM glucose + 10% FBS, 0.000781 µM	97.2	96.2	–
RPMI 5 mM glucose + 10% FBS, 0.00234 µM	93.2	96	–
RPMI 5 mM glucose + 10% FBS, 0.00702 µM	98.4	98.3	–
RPMI 5 mM glucose + 10% FBS, 0.0211 µM	104	93.4	–
RPMI 5 mM glucose + 10% FBS, 0.0632 µM	106	99.7	–
RPMI 5 mM glucose + 10% FBS, 0.19 µM	90.4	99.7	–
RPMI 5 mM glucose + 10% FBS, 0.569 µM	90	90	–
RPMI 5 mM glucose + 10% FBS, 1.71 µM	92.9	73.6	–
RPMI 5 mM glucose + 10% FBS, 5.12 µM	55.3	17.2	–
RPMI 5 mM glucose + 10% FBS, 15.4 µM	36.4	13.1	–
RPMI 5 mM glucose + 10% FBS, 46.1 µM	7.28	6.79	–
RPMI 5 mM glucose + 10% dialyzed FBS, 0.000781 µM	97.8	98.2	112
RPMI 5 mM glucose + 10% dialyzed FBS, 0.00234 µM	94.7	103	101
RPMI 5 mM glucose + 10% dialyzed FBS, 0.00702 µM	109	104	106
RPMI 5 mM glucose + 10% dialyzed FBS, 0.0211 µM	99.3	99.4	105
RPMI 5 mM glucose + 10% dialyzed FBS, 0.0632 µM	99	98.2	95.6
RPMI 5 mM glucose + 10% dialyzed FBS, 0.19 µM	95.1	88.9	91.4
RPMI 5 mM glucose + 10% dialyzed FBS, 0.569 µM	98.2	95.8	93.7
RPMI 5 mM glucose + 10% dialyzed FBS, 1.71 µM	70.8	64.9	63.6
RPMI 5 mM glucose + 10% dialyzed FBS, 5.12 µM	53.5	23.4	14.8
RPMI 5 mM glucose + 10% dialyzed FBS, 15.4 µM	33.2	14.5	8.42
RPMI 5 mM glucose + 10% dialyzed FBS, 46.1 µM	4.45	9.34	4.39

AUC of viability dose-response curve
Conditions	NOMO1 [4]	P12-Ichikawa [5]	SEM cells [6]
HPLM + 10% dialyzed FBS	379	343	345
RPMI 5 mM glucose + 10% FBS	390	349	348
RPMI 5 mM glucose + 10% dialyzed FBS	378	355	348
